Test results taken from patent US7989625B2, “Thienopyridines” (Merck Patent GmbH, priority 2005, dated 2011).

Target: T1, human HSP90α (Homo sapiens, UniProt P07900)
T1 construct: host or cells: E. coli
Assay: radioligand filter binding test, competition with [3H]17AAG for HSP90
Conditions: recombinant human HSP90α, [3H]17AAG 0.08 μM, 22° C., 30 min
Text: The binding of geldanamycin or 17-allylamino-17-demethoxygeldanamycin (17AAG) to HSP90 and competitive inhibition thereof can be utilised in order to determine the inhibitory activity of the compounds according to the invention (Carreras et al. 2003, Chiosis et al. 2002).
In the specific case, a radioligand filter binding test is used. The radioligand used here is tritium-labelled 17-allylaminogeldanamycin, [3H]17AAG. This filter binding test allows a targeted search for inhibitors which interfere with the ATP binding site.
Recombinant human HSP90α (E. coli expressed, 95% purity); [3H]17AAG (17-allylaminogeldanamycin, [allylamino-2,3-^3H. Specific activity: 1.11×10^12 Bq/mmol (Moravek, MT-1717);
HEPES filter buffer (50 mM HEPES, pH 7.0, 5 mM MgCl2, BSA 0.01%) Multiscreen FB (1 μm) filter plate (Millipore, MAFBNOB 50).
The 96-well microtitre filter plates are firstly irrigated and coated with 0.1% of polyethylenimine.
The test is carried out under the following conditions: • Reaction temperature 22° C. • Reaction time: 30 min., shaking at 800 rpm • Test volume: 50 μl • Final Concentrations: • 50 mM HEPES HCl, pH 7.0, 5 mM MgCl2, 0.01% (w/v) BSA • HSP90:1.5 μg/assay • [3H]17AAG: 0.08 μM.
At the end of the reaction, the supernatant in the filter plate is removed by suction with the aid of a vacuum manifold (Multiscreen Separation System, Millipore), and the filter is washed twice.
The filter plates are then measured in a beta counter (Microbeta, Wallac) with scintillator (Microscint 20, Packard).
“% of control” is determined from the “counts per minutes” values and the IC-50 value of a compound is calculated therefrom.

IC50 [µM] | SMILES
5.9 | COc1ccc(-c2c(C#N)c(N)nc3sc(C(N)=O)c(N)c23)cc1NC(=O)c1ccc(C(F)(F)F)cc1 [Compound A35, 2-aminocarbonyl-3,6-diamino-5-cyano-4-[4-methoxy-3-(4-trifluoromethylbenzoylamino)phenyl]thieno[2,3-b]pyridine]
11 | COc1ccc(-c2c(C#N)c(N)nc3sc(C(N)=O)c(N)c23)cc1NC(=O)c1ccccc1C(F)(F)F [Compound A36, 2-aminocarbonyl-3,6-diamino-5-cyano-4-[4-methoxy-3-(2-trifluoromethylbenzoylamino)phenyl]thieno[2,3-b]pyridine]
1.9 | COc1ccc(-c2c(C#N)c(N)nc3sc(C(N)=O)c(N)c23)cc1NC(=O)c1ccncc1 [Compound A37, 2-aminocarbonyl-3,6-diamino-5-cyano-4-[4-methoxy-3-(pyridin-4-ylcarbonylamino)phenyl]thieno[2,3-b]pyridine]
5.5 | COc1ccc(-c2c(C#N)c(N)nc3sc(C(N)=O)c(N)c23)cc1NC(=O)C(C)C [Compound A38, 2-aminocarbonyl-3,6-diamino-5-cyano-4-[4-methoxy-3-(prop-2-ylcarbonylamino)phenyl]thieno[2,3-b]pyridine]
